Source: patent publication US9889113B2, “Method for reversing, preventing, delaying or stabilizing soft tissue calcification” (Panion & BF Biotech, Inc., priority 2006, dated 2018)

How the values were obtained:
[1] = test system: cornea calcification in end stage renal disease patients; assay: Cornea calcification by slit-lamp photographs and Image J analysis, Phase II and open-label extension; format: in vivo, human; details: for 1st eye test Calcified area on cornea (%): baseline
Method: Eye examinations were carried out by using a slit-lamp microscope which was connected to a digital camera (NIKON E995). Calcifications in the cornea occur close to the nasal and temporal sides of the corneal limbus and look like the band keratopathy of hypercalcemia. Observer photographed the inner side (close to nasal), outer side (close to temporal) or took a full view of the cornea where calcification was found (FIG. 6).
An image analysis software called “Image J” was used for data analysis. The image analysis software is developed to display, edit, analyze, process, save and print 8-bit, 16-bit and 32-bit images. It can calculate area and pixel value statistics of user-defined selections, measure distances and angles, and create density histograms and line profile plots. It supports standard image processing functions such as contrast manipulation, sharpening, smoothing, edge detection and median filtering. The software is developed at the Research Services Branch of the National Institute of Mental Health, an institute of the National Institutes of Health (NIH). The software can be downloaded from the NIH website.
The image analysis software is able to measure calcified area and total cornea area that are subjectively defined by the user. To estimate calcified area, the observer first loads the patient's eye picture on to the image software, crops the specific calcified region, and the software will measure the defined section accordingly (defined as how many pixels in that area). […] To estimate the size of the full cornea, the observer used the image software to crop a 90 degrees fan-shape area on the available cornea region on the picture subjectively, and then let the software calculate the size of this fan-shape area to represent ¼ of the full cornea. By multiply the number by four, the observer then got an estimate of total cornea area.
The severity of cornea calcification was evaluated based on the percentage of the cornea surface occupied by calcification, i.e. % inner side calcification+% outer side calcification, wherein inner or outer side calcification is calculated as (calcified area on inner or outer cornea/total cornea area)×100.
In this study, patients were referred to ophthalmic department for eye examination before and after ferric citrate treatment. All patients had their 1st eye examination few days before or on the first dosing day of the Phase II trial (baseline value for cornea calcification). The time for 2nd eye examination was varied. Some were examined right after the Phase II study and some were examined during the OLE period. Nonetheless, disregarding when the 2nd eye examination was taken, it must be obtained after a defined consecutive days of ferric citrate administration in order to be considered as valid value for determinating the effects of ferric citrate on the cornea calcification changes.
All patients from the ferric citrate Phase II clinical trial were followed with a drug free period for various length of time, and some patients then participated in the open-label extension treatment period. Each participating patients received two eye examinations performed by an ophthalmologist. Depending on the dates of the first and second eye examinations and the corresponding drug dosing period, not all participating patients can generate usable information. The accepted patients were those who had received consecutive dosing for at least 21 days. The period between the first and second eye examination was at least as long as the dosing period. The actual interval between the two eye examinations was not relevant for the purpose of this evaluation since the longer the time between the first and second eye examination, the higher the possibility of cornea calcification development, not the other way around. […]

[2] = test system: patients with end stage renal disease (ESRD); assay: Serum creatinine level in the open-label extension of the Phase II study; format: in vivo, human; details: several patients who received 6 g/day
Description: Glomerular filtration rate (GFR) level correlates with structural kidney damage and is used as a golden standard to measure kidney function. GFR can be estimated by the biomarkers serum creatinine. As renal function deteriorates, kidney lost its function to excrete creatinine effectively and lead to creatinine retention in the body. Therefore, increase of serum creatinine indicates lowering GFR and is an important sign of kidney deterioration.
In an open-label extension of a Phase II clinical study: “randomized, double-blind, placebo-controlled, dose-ranging study of the effects of ferric citrate on serum phosphate in patients with end stage renal disease (ESRD)”, some of the patients were administered 2-6 g/day of ferric citrate and serum creatinine level was monitored to assess kidney function.

[3] = 11 patients on active treatment (22 eye values)
[4] = Subject 2-01-1-002, Left eye, 2 g/day, treatment 28 days, interval between tests 61 days
[5] = Subject 2-01-1-002, Right eye, 2 g/day, treatment 28 days, interval between tests 61 days
[6] = Subject 2-01-1-004, Left eye, 6 g/day, treatment 28 days, interval between tests 78 days
[7] = Subject 2-01-1-004, Right eye, 6 g/day, treatment 28 days, interval between tests 78 days
[8] = Subject 2-01-1-006, Left eye, 6 g/day, treatment 28 days, interval between tests 50 days
[9] = Subject 2-01-1-006, Right eye, 6 g/day, treatment 28 days, interval between tests 50 days
[10] = Subject 2-01-1-009, Left eye, 4 g/day, treatment 28 days, interval between tests 50 days
[11] = Subject 2-01-1-009, Right eye, 4 g/day, treatment 28 days, interval between tests 50 days
[12] = Subject 2-01-1-012, Left eye, 2 g/day, treatment 28 days, interval between tests 66 days
[13] = Subject 2-01-1-012, Right eye, 2 g/day, treatment 28 days, interval between tests 66 days
[14] = Subject 2-01-1-018, Left eye, 6 g/day, treatment 28 days, interval between tests 75 days
[15] = Subject 2-01-1-018, Right eye, 6 g/day, treatment 28 days, interval between tests 75 days
[16] = Subject 2-01-1-022, Left eye, 6 g/day, treatment 57 days, interval between tests 217 days
[17] = Subject 2-01-1-022, Right eye, 6 g/day, treatment 57 days, interval between tests 217 days
[18] = Subject 2-01-1-042, Left eye, 6 g/day, treatment 42 days, interval between tests 199 days
[19] = Subject 2-01-1-042, Right eye, 6 g/day, treatment 42 days, interval between tests 199 days
[20] = Subject 2-01-1-048, Left eye, 4 g/day, treatment 28 days, interval between tests 186 days
[21] = Subject 2-01-1-048, Right eye, 4 g/day, treatment 28 days, interval between tests 186 days
[22] = Subject 2-01-1-050, Left eye, 6 g/day, treatment 33 days, interval between tests 198 days
[23] = Subject 2-01-1-050, Right eye, 6 g/day, treatment 33 days, interval between tests 198 days
[24] = Subject 2-01-1-068, Left eye, 6 g/day, treatment 34 days, interval between tests 202 days
[25] = Subject 2-01-1-068, Right eye, 6 g/day, treatment 34 days, interval between tests 202 days

In the case of `O=C([O-])CC(O)(CC(=O)[O-])C(=O)[O-].[Fe+3]` [ferric citrate], the “average change of worsened eye cornea calcification values” ([1]; 10 worsened eye values of 11 actively treated patients) was “+2.20%”, the “average change of improved eye cornea calcification values” ([1]; 11 improved eye values of 11 actively treated patients) was −2.07% and the “number of eye cornea calcification values that exhibited improvement” value [1, 3] was 11. The “number of eye cornea calcification values that remained unchanged” value [1, 3] was “one”, the “number of eye cornea calcification values that exhibited worsened results” value ([1]; 11 patients on active treatment (22 eye values), 2-6 g/day, 28 to 57 days) was 10 and the “effect on cornea calcification conditions (overall)” value ([1]; ESRD patients, 2-6 g/day) was “appears to delay or improve cornea calcification conditions”. The “cornea calcification after treatment (FIG. 10)” value ([1]; Patient ID 2-01-1-012, 2 g/day, treatment period 28 days) was “improved cornea calcification”, the “2nd eye test Calcified area on cornea (%)” value [1, 4] was 3.75% and the “Difference between 1st and 2nd tests (%)” value [1, 4] was −0.15%. The “1st eye test Calcified area on cornea (%)” value [1, 4] was 3.90%, the “2nd eye test Calcified area on cornea (%)” value [1, 5] was 0.00% and the “Difference between 1st and 2nd tests (%)” value [1, 5] was 0.00%. For the same compound, the “1st eye test Calcified area on cornea (%)” value [1, 5] was 0.00%, the “2nd eye test Calcified area on cornea (%)” value [1, 6] was 1.10% and the “Difference between 1st and 2nd tests (%)” value [1, 6] was −1.40%. For the same compound, the “1st eye test Calcified area on cornea (%)” value [1, 6] was 2.50%, the “2nd eye test Calcified area on cornea (%)” value [1, 7] was 2.20% and the “Difference between 1st and 2nd tests (%)” value [1, 7] was −2.18%. The “1st eye test Calcified area on cornea (%)” value [1, 7] was 4.38%, the “2nd eye test Calcified area on cornea (%)” value [1, 8] was 50.36% and the “Difference between 1st and 2nd tests (%)” value [1, 8] was −0.59%. For the same compound, the “1st eye test Calcified area on cornea (%)” value [1, 8] was 50.95%, the “2nd eye test Calcified area on cornea (%)” value [1, 9] was 29.27% and the “Difference between 1st and 2nd tests (%)” value [1, 9] was −3.16%. The “1st eye test Calcified area on cornea (%)” value [1, 9] was 32.43%, the “2nd eye test Calcified area on cornea (%)” value [1, 10] was 0.00% and the “Difference between 1st and 2nd tests (%)” value [1, 10] was −1.16%. The “1st eye test Calcified area on cornea (%)” value [1, 10] was 1.16%, the “2nd eye test Calcified area on cornea (%)” value [1, 11] was 1.00% and the “Difference between 1st and 2nd tests (%)” value [1, 11] was 0.49%. The “1st eye test Calcified area on cornea (%)” value [1, 11] was 0.51%, the “2nd eye test Calcified area on cornea (%)” value [1, 12] was 2.09% and the “Difference between 1st and 2nd tests (%)” value [1, 12] was −1.41%. For the same compound, the “1st eye test Calcified area on cornea (%)” value [1, 12] was 3.50%, the “2nd eye test Calcified area on cornea (%)” value [1, 13] was 4.69% and the “Difference between 1st and 2nd tests (%)” value [1, 13] was −10.21%. For the same compound, the “1st eye test Calcified area on cornea (%)” value [1, 13] was 14.90%, the “2nd eye test Calcified area on cornea (%)” value [1, 14] was 7.72% and the “Difference between 1st and 2nd tests (%)” value [1, 14] was 1.79%. The “1st eye test Calcified area on cornea (%)” value [1, 14] was 5.93%, the “2nd eye test Calcified area on cornea (%)” value [1, 15] was 38.86% and the “Difference between 1st and 2nd tests (%)” value [1, 15] was −1.99%. The “1st eye test Calcified area on cornea (%)” value [1, 15] was 40.85%, the “2nd eye test Calcified area on cornea (%)” value [1, 16] was 8.37% and the “Difference between 1st and 2nd tests (%)” value [1, 16] was 6.98%. The “1st eye test Calcified area on cornea (%)” value [1, 16] was 1.39%, the “2nd eye test Calcified area on cornea (%)” value [1, 17] was 7.29% and the “Difference between 1st and 2nd tests (%)” value [1, 17] was 0.08%. The “1st eye test Calcified area on cornea (%)” value [1, 17] was 7.21%, the “2nd eye test Calcified area on cornea (%)” value [1, 18] was 4.91% and the “Difference between 1st and 2nd tests (%)” value [1, 18] was 4.24%. The “1st eye test Calcified area on cornea (%)” value [1, 18] was 0.67%, the “2nd eye test Calcified area on cornea (%)” value [1, 19] was 3.73% and the “Difference between 1st and 2nd tests (%)” value [1, 19] was 3.24%. For the same compound, the “1st eye test Calcified area on cornea (%)” value [1, 19] was 0.49%, the “2nd eye test Calcified area on cornea (%)” value [1, 20] was 2.01% and the “Difference between 1st and 2nd tests (%)” value [1, 20] was 0.16%. The “1st eye test Calcified area on cornea (%)” value [1, 20] was 1.85%, the “2nd eye test Calcified area on cornea (%)” value [1, 21] was 2.09% and the “Difference between 1st and 2nd tests (%)” value [1, 21] was −0.41%. For the same compound, the “1st eye test Calcified area on cornea (%)” value [1, 21] was 2.50%, the “2nd eye test Calcified area on cornea (%)” value [1, 22] was 1.62% and the “Difference between 1st and 2nd tests (%)” value [1, 22] was 0.76%. For the same compound, the “1st eye test Calcified area on cornea (%)” value [1, 22] was 0.86%, the “2nd eye test Calcified area on cornea (%)” value [1, 23] was 1.54% and the “Difference between 1st and 2nd tests (%)” value [1, 23] was −0.08%. For the same compound, the “1st eye test Calcified area on cornea (%)” value [1, 23] was 1.62%, the “2nd eye test Calcified area on cornea (%)” value [1, 24] was 3.09% and the “Difference between 1st and 2nd tests (%)” value [1, 24] was 2.04%. The “1st eye test Calcified area on cornea (%)” value [1, 24] was 1.05%, the “2nd eye test Calcified area on cornea (%)” value [1, 25] was 2.24% and the “Difference between 1st and 2nd tests (%)” value [1, 25] was 2.24%. For the same compound, the “1st eye test Calcified area on cornea (%)” value [1, 25] was 0.00% and the serum creatinine level [2] was “trend of decreased serum creatinine level”.
